Consider 21 compounds from ChEMBL document CHEMBL1201862, “PubChem BioAssay data set” (2004).

Each structure is given as a SMILES string.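 Interpolation was linear, between the two tested concentrations surrounding the appropriate level; five concentrations were tested over 48 hours in 96-well plates. Abbreviation: GI50, concentration required for 50% inhibition of growth.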 Calls of active or inactive are those of the source. Cut-off read from the data, not from the text of the source: active = GI50 up to about 1.1 µM and inactive = higher. A value given as a limit tells only on which side of the number the result lay.

Assay in all cases: NCI tumour cell line growth inhibition, 48 h
Assay [1] deals with M19-MEL.
Assay [2] has as its system SNB-78.
The test system of assay [3] is XF498.
Assay [4] relates to DMS-114.
Assay [5] deals with DMS-273.
For assay [6], the system named is LXFL 529.
The test system of assay [7] is KM-20L2.
The test system of assay [8] is HOP-18.
The test system of assay [9] is RXF 631.

For the compound `COc1ccc2c3c1C(=O)CCCC3CO2` (stereo not given), the GI50 in assay [1], in assay [2], in assay [3], in assay [4], in [5] and in [6] was > 100 µM (inactive) throughout.

Turning to `CCOC(=O)C1=C(O)C(=O)c2c(OC)ccc(OC)c2C1=O`, the GI50 is > 100 µM (inactive) in assay [1]; > 100 µM (inactive) in assay [2]; > 100 µM (inactive) in [3]; > 100 µM (inactive) in [7]; 32.5 µM (inactive) in assay [8]; > 100 µM (inactive) in [4]. Also, in assay [5], the GI50 is > 100 µM (inactive).

With `Cc1ccc(NC(=O)CC2C(=O)Nc3ccccc3S2(=O)=O)c(C)c1` (stereo not given), the GI50 is 18.1 µM (inactive) in [2]; 14.8 µM (inactive) in assay [3]; 13.8 µM (inactive) in assay [7]; 15 µM (inactive) in assay [4]; 10.7 µM (inactive) in assay [5]; 16.7 µM (inactive) in assay [6].

Regarding `C[C@@H]1C[C@@H](O)[C@]2(O)O[C@@H]3C[C@@]4(C=O)[C@@H](CC[C@@H]5[C@@H]4CC[C@]4(C)[C@@H](C6=CC(=O)OC6)CC[C@]54O)C[C@H]3O[C@@H]2O1` [CALACTIN], the GI50 in assay [1] was 0.0206 µM (active); in [2], 0.0106 µM (active); in assay [3], 0.0159 µM (active); in assay [7], 0.0182 µM (active); in assay [8], 0.0042 µM (active); in assay [4], 0.00141 µM (active). The GI50 in [5] is 0.00455 µM (active); in assay [6], 0.00501 µM (active).

With `CC(=O)CC(N)=O`, the GI50 in [1], in assay [2], in assay [3], in assay [9], in [7] and in [8] was > 100 µM (inactive) each time. Also, the GI50 in assay [4], in assay [5] and in assay [6] was > 100 µM (inactive) in each case.

Take `O=C1c2ccccc2C(=O)C12CCc1ccccc12`: the GI50 in [1], in assay [2], in [3], in assay [9], in [7] and in assay [8] was > 100 µM (inactive) in each case. The GI50 in [4], in assay [5] and in [6] was > 100 µM (inactive) in each case.

With `O=c1ncccn1C1C=C(CO)C(O)C1O` (stereo not given), the GI50 in [2], in [3], in assay [7], in [8], in assay [4] and in [5] was > 50 µM (inactive) throughout. For the same compound, the GI50 in assay [6] was > 50 µM (inactive).

As to `COc1c(CC(C)=O)c2ccccc2n1C(C)=O`, the GI50 in assay [1], in [2], in assay [3], in assay [9], in assay [7] and in [8] was > 100 µM (inactive) each time. In addition, the GI50 in [5] and in assay [6] was > 100 µM (inactive) throughout.

On to `O=C(CSc1nnc(Cc2ccccc2)o1)Nc1ccccc1`, for which the GI50 in assay [1], in assay [2], in assay [7], in assay [8], in [4] and in [5] was > 100 µM (inactive) each time. The GI50 in [6] is > 100 µM (inactive).

Consider `CC1=C(NC(=O)/C(=N/NC(=S)NN)C2C(=O)CC(C)(C)CC2=O)C(=O)c2ccccc2C1=O`, for which the GI50 in [1] is 1.33 µM (inactive); in [2], 15.2 µM (inactive); in assay [3] it was 14.9 µM (inactive); in assay [9] it was 7.8 µM (inactive); in assay [7], 11.4 µM (inactive); in [8], 15.7 µM (inactive). The GI50 is 2.12 µM (inactive) in assay [4], 6.21 µM (inactive) in [5] and 11.4 µM (inactive) in [6].

Turning to `CC(=O)c1c2c(cc3c1CC1(C3)Cc3cc4c(c(C(C)=O)c3C1)CCC4)CCC2`, the GI50 in [1], in [2], in assay [3], in [9], in assay [8] and in assay [4] was > 100 µM (inactive) throughout. Also, the GI50 in assay [6] is > 100 µM (inactive).

Take `O=C1Cc2ccccc2CCc2ccccc21`: the GI50 is > 100 µM (inactive) in assay [1]; > 100 µM (inactive) in assay [2]; > 100 µM (inactive) in assay [7]; > 100 µM (inactive) in [8]; 47 µM (inactive) in assay [4]; > 100 µM (inactive) in assay [5]. Besides, in [6], the GI50 is > 100 µM (inactive).

Consider `NC(=O)CCC(NC(=O)Cc1ccccc1)C(=O)O` (stereo not given), for which the GI50 in assay [1], in assay [7], in assay [4], in [5] and in [6] was > 2470 µM (inactive) each time.

On to `CC1=NN(c2ccccc2)C(=O)/C1=C\c1ccc([N+](=O)[O-])cc1`, for which the GI50 in [2] was 28.4 µM (inactive); in assay [3], 16.6 µM (inactive); in assay [9] it was 29.5 µM (inactive); in assay [7], 22.8 µM (inactive); in assay [8], < 0.01 µM (active); in [4], 20.8 µM (inactive). Also, the GI50 in assay [5] was 25 µM (inactive); in assay [6], 32.1 µM (inactive).

`COC1C2c3ccccc3C(C#N)(Cc3ccc4c(c32)OCO4)N1C(=O)c1ccccc1` (stereo not given): the GI50 in assay [2] is 47.8 µM (inactive); in assay [3] it was 21.3 µM (inactive); in [9], > 100 µM (inactive); in assay [7] it was 43.1 µM (inactive); in [8], 80.7 µM (inactive); in assay [4] it was 19.6 µM (inactive). Besides, the values for the GI50 in assay [5] and in assay [6] were 5.65 µM (inactive) and 46 µM (inactive), respectively.

Regarding `Oc1ccc(-c2c3ccccc3c(-c3ccc(O)cc3)c3ccccc23)cc1`, the GI50 in assay [1], in [2], in assay [3], in assay [7], in assay [8] and in [4] was > 100 µM (inactive) throughout. Moreover, the results for the GI50 in assay [5] and in [6] were > 100 µM (inactive) and 91.6 µM (inactive), respectively.

As to `O=C(c1nc2ccccc2nc1O)C(O)c1ccccc1` (stereo not given), the GI50 was 90.8 µM (inactive) in assay [1]; > 100 µM (inactive) in assay [2]; 46.5 µM (inactive) in assay [7]; 48.6 µM (inactive) in assay [4]; 60.3 µM (inactive) in assay [5]; 50.2 µM (inactive) in assay [6].

As for `CC(C)CN1CC(C)C(=O)NC1=O` (stereo not given), the GI50 in assay [1], in [2], in [3], in [7], in [4] and in assay [5] was > 100 µM (inactive) throughout. In assay [6], the GI50 was > 100 µM (inactive).

For `CCOC(=O)CSc1nnc(C(Sc2nc(-c3ccccc3)c(-c3ccccc3)[nH]2)C(C)C)n1-c1ccccc1` (stereo not given), the GI50 in assay [1], in [2], in assay [7], in [4], in [5] and in [6] was > 10 µM (inactive) throughout.

Turning to `O=S(O)CCCCCSSCCCCSSCCCCCS(=O)O`, the GI50 in [1] is > 100 µM (inactive); in assay [2], > 100 µM (inactive); in [3] it was 46.8 µM (inactive); in assay [9], > 100 µM (inactive); in assay [7], > 100 µM (inactive); in assay [8], > 100 µM (inactive). For the same compound, the GI50 was > 100 µM (inactive) in assay [4], > 100 µM (inactive) in [5] and 79.6 µM (inactive) in assay [6].

For the compound `NNC(=O)CCC(=O)Nc1cc(Cl)c(Cl)cc1Cl`, the GI50 in assay [1], in assay [2], in [3], in assay [9], in assay [7] and in assay [4] was > 100 µM (inactive) throughout. The GI50 in assay [5] and in assay [6] was > 100 µM (inactive) in each case.
